# Source: article PMC12461331, “Screening of Medicines for Malaria Venture Open Boxes Identifies Potent SARS-CoV‑2 Papain-like Protease (PL^pro) Inhibitors” (ACS Omega, 2025)
# “And” between values parts separate entries of the source, which are not always exact repeats. Equal entries are not always repeated. Where two headings read alike, the source gives them in different places.
# Columns and labels:
# physchem [1] = conditions: pH 7.4
# in vitro [2] = conditions: PAMPA
# PL^pro = PL^pro (Severe acute respiratory syndrome coronavirus 2, UniProt P0DTD1); conditions: 20 μM compound, 5 μM enzyme, average of triplicates with SD
# [3] = Mouse liver microsomal stability assay; conditions: CD1, mouse, pH 7.4
# [4] = PAMPA
# physchem [5] = conditions: 25 °C, kinetic from dmso stock
# in vitro [6] = conditions: CD1, mouse, microsomes, pH 7.4
# [7] = human, microsomes
# in vitro [8] = conditions: human, microsomes, pH 7.4
# [9] = Human liver microsomal stability assay
# [10] = female, BALB/c, mouse, 1 h, 2 μM, pH 7.4
# Plasma stability = conditions: for half-life at 2 μM: female, BALB/c, mouse, plasma, pH 7.4
# Kinetic solubility = conditions: 25 °C, kinetic from dmso stock
# SARS-CoV-2 = conditions: Vero CCL-81 cells, 10 μM
# SARS-CoV-2 PL^pro = SARS-CoV-2 PL^pro (Severe acute respiratory syndrome coronavirus 2, UniProt P0DTD1); format: biochemical
# [11] = Parallel artificial membrane permeability assay (PAMPA)
# [12] = Chromatographic distribution coefficient (eLogD7.4); conditions: pH 7.4
# [13] = human, liver microsomes, pH 7.4
Compound,chromatographic logD (physchem [1]),"Papp at 5 h, 10 μM (in vitro [2]) [×10⁻⁶ cm/s]",ΔT m (PL^pro),half-life at 0.5 μM ([3]; liver microsomes) [min],permeability (in words) [4],"solubility kinetic at 24 h (physchem [5]; pH 2, aqueous buffer) [µg/mL]","solubility kinetic at 24 h (physchem [5]; pH 7.4, aqueous buffer) [µg/mL]",microsomal CLint at 0.5 μM (in vitro [6]) [µL/min/mg],microsomal CLint at 0.5 μM (in vitro [8]) [µL/min/mg],"half-life at 0.5 μM [9, 13] [min]",plasma stability remaining 60 min [10] [%],half-life at 2 μM (Plasma stability) [h],other results
COc1ccc(CNC(=O)C2CCN([C@H](C)c3ccccc3)CC2)cc1 [Compound 3],3,2.35,0.06 °C and 0.06 ± 0.05 °C,29.5,highly permeable,> 22.1,> 22.3,94,12,231,83.80,–,metabolic stability (in words) [7]: improved stability
COc1ccc(CC(=O)NC2CCN([C@H](C)c3cccc4ccccc34)CC2)cc1 [Compound 6],4.28,1.74,4.8 °C and 4.8 ± 0.1 °C,16.2,highly permeable,> 24.9,> 12.7,171,88.4,31.4,90.29,38.5,–
COc1ccc(CNC(=O)C2CCN(C(C)c3cccc4ccccc34)CC2)cc1 (centres unmarked) [MMV1634397],–,–,6.26 °C and 6.3 ± 0.3 °C,–,–,–,–,–,–,–,–,7.22,"solubility kinetic at 24 h (Kinetic solubility; pH 2, aqueous buffer): > 24.6 µg/mL; solubility kinetic at 24 h (Kinetic solubility; pH 7.4, aqueous buffer): > 21.6 µg/mL; half-life at 0.5 μM ([3]; microsomes): 21.5 min; microsomal CLint at 0.5 μM ([3]; microsomes): 129 µL/min/mg; decrease of viral replication (viral load by RT-PCR) (SARS-CoV-2): over 50%; plasma stability remaining 60 min (Plasma stability; mouse plasma, 60 min): 54.08%; inhibition of SARS-CoV-2 PL^pro (SARS-CoV-2 PL^pro): ≥ 80%; Papp at 5 h, 10 μM [11]: 1.07 ×10⁻⁶ cm/s; permeability (in words) [11]: medium to low permeable; chromatographic logD [12]: 4.17; HLM CLint(mic) ([9]; human liver microsomes): 80.40 µL/min/mg; HLM T 1/2 ([9]; human liver microsomes): 34.48 min; microsomal CLint at 0.5 μM ([9]; human, microsomes, pH 7.4, HLM CLint(mic), human liver microsomes): 80 µL/min/mg; half-life at 0.5 μM ([9]; human, microsomes, pH 7.4, HLM T 1/2, human liver microsomes): 35 min; metabolic stability (in words) ([9]; liver microsomes): moderately stable"
